In brackets after ≈: the same amount, converted by molar mass.
How the values were obtained:
[1] = Drug level in C57Bl/6 mouse urine at 10 mg/kg, iv administered as single dose measured after 60 mins by LC-MS/MS analysis; assay type: ADME, organism-based; details: for Drug uptake: mouse, in vivo, 1 h
[2] = test system: Mus musculus; experiment: AUC (0 to 8 hrs) in C57Bl/6 mouse assessed as platensimycin level at 10 mg/kg, iv administered as single dose by LC-MS/MS analysis; assay type: ADME, organism-based; set-up: dose 10 mg/kg, time < 8 hr, route intravenous; details: in vivo
[3] = Observed clearance in C57Bl/6 mouse at 10 mg/kg, iv administered as single dose by LC-MS/MS analysis; assay type: ADME, organism-based; details: in vivo
[4] = test system: Mus musculus; experiment: AUC (0 to 8 hrs) in C57Bl/6 mouse at 10 mg/kg, iv administered as single dose by LC-MS/MS analysis; assay type: ADME, organism-based; set-up: dose 10 mg/kg, time < 8 hr, route intravenous; details: in vivo
[5] = test system: Plasma; experiment: Drug metabolism in C57Bl/6 mouse plasma assessed as platensimycin formation at 10 mg/kg, iv administered as single dose measured after 60 mins by LC-MS/MS analysis; assay type: ADME, organism-based; details: in vivo, 1 h
[6] = Ratio of drug level in C57Bl/6 mouse kidney to plasma at 10 mg/kg, iv administered as single dose measured after 60 mins by LC-MS/MS analysis; assay type: ADME, organism-based
[7] = Volume of distribution in C57Bl/6 mouse at 10 mg/kg, iv administered as single dose by LC-MS/MS analysis; assay type: ADME, organism-based; details: in vivo
[8] = Ratio of drug level in C57Bl/6 mouse liver to plasma at 10 mg/kg, iv administered as single dose measured after 60 mins by LC-MS/MS analysis; assay type: ADME, organism-based
[9] = Elimination half life in C57Bl/6 mouse at 10 mg/kg, iv administered as single dose by LC-MS/MS analysis; assay type: ADME, organism-based; details: in vivo, read-out: beta t1/2 (converted)
[10] = Cmax in C57Bl/6 mouse at 10 mg/kg, iv administered as single dose by LC-MS/MS analysis; assay type: ADME, organism-based; set-up: dose 10 mg/kg, route intravenous; details: in vivo
[11] = test system: Plasma; experiment: Drug uptake in C57Bl/6 mouse plasma at 10 mg/kg, iv administered as single dose measured after 60 mins by LC-MS/MS analysis; assay type: ADME, organism-based; details: in vivo, 1 h
[12] = Drug level in C57Bl/6 mouse urine assessed as platensimycin level at 10 mg/kg, iv administered as single dose measured after 60 mins by LC-MS/MS analysis; assay type: ADME, organism-based; details: in vivo, 1 h
[13] = test system: Mus musculus; experiment: Cmax in C57Bl/6 mouse assessed as platensimycin level at 10 mg/kg, iv administered as single dose by LC-MS/MS analysis; assay type: ADME, organism-based; set-up: dose 10 mg/kg, route intravenous; details: in vivo
[14] = test system: Mus musculus; experiment: Volume of distribution in C57Bl/6 mouse assessed as platensimycin level at 10 mg/kg, iv administered as single dose by LC-MS/MS analysis; assay type: ADME, organism-based; details: in vivo
[15] = test system: Mus musculus; experiment: Elimination half life in C57Bl/6 mouse assessed as platensimycin level at 10 mg/kg, iv administered as single dose by LC-MS/MS analysis; assay type: ADME, organism-based; details: in vivo
[16] = test system: Mus musculus; experiment: AUC (0 to 8 hrs) in C57Bl/6 mouse assessed as platensimycin ML12 level at 10 mg/kg, iv administered as single dose by LC-MS/MS analysis; assay type: ADME, organism-based; set-up: dose 10 mg/kg, time < 8 hr, route intravenous; details: in vivo
[17] = test system: Mus musculus; experiment: Cmax in C57Bl/6 mouse assessed as platensimycin ML12 level at 10 mg/kg, iv administered as single dose by LC-MS/MS analysis; assay type: ADME, organism-based; set-up: dose 10 mg/kg, route intravenous; details: in vivo
[18] = test system: Mus musculus; experiment: Elimination half life in C57Bl/6 mouse assessed as platensimycin ML12 level at 10 mg/kg, iv administered as single dose by LC-MS/MS analysis; assay type: ADME, organism-based; details: in vivo
[19] = In vivo stability in C57Bl/6 mouse urine assessed as compound hydrolysis at 10 mg/kg, iv administered as single dose measured after 60 mins by LC-MS/MS analysis; assay type: ADME, organism-based; details: 1 h
[20] = test system: Staphylococcus aureus; experiment: Antibacterial activity against Staphylococcus aureus ATCC 25923 after 18 hrs by broth dilution method; assay type: functional; details: ATCC 25923, 18 h
[21] = test system: Plasma; experiment: In vivo stability in C57Bl/6 mouse plasma assessed as compound hydrolysis at 10 mg/kg, iv administered as single dose measured after 60 mins by LC-MS/MS analysis; assay type: ADME, organism-based; details: 1 h
[22] = test system: Kidney; experiment: Drug uptake in C57Bl/6 mouse kidney at 10 mg/kg, iv administered as single dose measured after 60 mins by LC-MS/MS analysis; assay type: ADME, organism-based; details: in vivo, 1 h
[23] = test system: Kidney; experiment: In vivo stability in C57Bl/6 mouse kidney assessed as compound hydrolysis at 10 mg/kg, iv administered as single dose measured after 60 mins by LC-MS/MS analysis; assay type: ADME, organism-based; details: 1 h
[24] = test system: Liver; experiment: In vivo stability in C57Bl/6 mouse liver assessed as compound hydrolysis at 10 mg/kg, iv administered as single dose measured after 60 mins by LC-MS/MS analysis; assay type: ADME, organism-based; details: 1 h
[25] = test system: Micrococcus luteus; experiment: Antibacterial activity against Micrococcus luteus ATCC 9431 after 18 hrs by broth dilution method; assay type: functional; details: ATCC 9431, 18 h
[26] = test system: Liver; experiment: Drug uptake in C57Bl/6 mouse liver at 10 mg/kg, iv administered as single dose measured after 60 mins by LC-MS/MS analysis; assay type: ADME, organism-based; details: in vivo, 1 h
[27] = Drug level in mouse hepatic microsomes treated with platensimycin at 1 uM up to 60 mins in presence of NADPH by LC-MS/MS analysis; assay type: ADME, Liver, Microsome; details: 1 h
[28] = Drug level in mouse hepatic microsomes treated with platensimycin at 1 uM up to 60 mins in absence of NADPH by LC-MS/MS analysis; assay type: ADME, Liver, Microsome; details: 1 h
[29] = Ratio of drug level in C57Bl/6 mouse lung to plasma at 10 mg/kg, iv administered as single dose measured after 60 mins by LC-MS/MS analysis; assay type: ADME, organism-based
[30] = test system: Mus musculus; experiment: AUC (0 to 8 hrs) in C57Bl/6 mouse at 3 mg/kg, iv administered as single dose by LC-MS/MS analysis; assay type: ADME, organism-based; set-up: dose 3 mg/kg, time < 8 hr, route intravenous; details: in vivo
[31] = test system: Mus musculus; experiment: AUC (0 to 8 hrs) in C57Bl/6 mouse at 10 mg/kg, po administered as single dose via gavage by LC-MS/MS analysis; assay type: ADME, organism-based; set-up: time < 8 hr, dose 10 mg/kg, route oral; details: in vivo
[32] = Drug uptake in C57Bl/6 mouse muscle at 10 mg/kg, iv administered as single dose measured after 60 mins by LC-MS/MS analysis; assay type: ADME, organism-based, Muscle tissue; details: in vivo, 1 h
[33] = Cmax in C57Bl/6 mouse at 3 mg/kg, iv administered as single dose by LC-MS/MS analysis; assay type: ADME, organism-based; set-up: dose 3 mg/kg, route intravenous; details: in vivo
[34] = Volume of distribution in C57Bl/6 mouse at 3 mg/kg, iv administered as single dose by LC-MS/MS analysis; assay type: ADME, organism-based; details: in vivo
[35] = Elimination half life in C57Bl/6 mouse at 3 mg/kg, iv administered as single dose by LC-MS/MS analysis; assay type: ADME, organism-based; details: in vivo, read-out: beta t1/2 (converted)
[36] = test system: Lung; experiment: In vivo stability in C57Bl/6 mouse lung assessed as compound hydrolysis at 10 mg/kg, iv administered as single dose measured after 60 mins by LC-MS/MS analysis; assay type: ADME, organism-based; details: 1 h
[37] = test system: Lung; experiment: Drug uptake in C57Bl/6 mouse lung at 10 mg/kg, iv administered as single dose measured after 60 mins by LC-MS/MS analysis; assay type: ADME, organism-based; details: in vivo, 1 h
[38] = Oral bioavailability in C57Bl/6 mouse at 10 mg/kg administered as single dose via gavage by LC-MS/MS analysis; assay type: ADME, organism-based; details: in vivo
[39] = Observed clearance in C57Bl/6 mouse at 3 mg/kg, iv administered as single dose by LC-MS/MS analysis; assay type: ADME, organism-based; details: in vivo
[40] = Drug uptake in C57Bl/6 mouse adipose tissue at 10 mg/kg, iv administered as single dose measured after 60 mins by LC-MS/MS analysis; assay type: ADME, organism-based; details: in vivo, 1 h
[41] = In vivo stability in C57Bl/6 mouse muscle assessed as compound hydrolysis at 10 mg/kg, iv administered as single dose measured after 60 mins by LC-MS/MS analysis; assay type: ADME, organism-based, Muscle tissue; details: 1 h
[42] = test system: Brain; experiment: In vivo stability in C57Bl/6 mouse brain assessed as compound hydrolysis at 10 mg/kg, iv administered as single dose measured after 60 mins by LC-MS/MS analysis; assay type: ADME, organism-based; details: 1 h
[43] = Elimination half life in C57Bl/6 mouse at 10 mg/kg, po administered as single dose via gavage by LC-MS/MS analysis; assay type: ADME, organism-based; details: in vivo, read-out: beta t1/2 (converted)
[44] = Ratio of drug level in C57Bl/6 mouse muscle to plasma at 10 mg/kg, iv administered as single dose measured after 60 mins by LC-MS/MS analysis; assay type: ADME, organism-based, Muscle tissue/plasma
[45] = Cmax in C57Bl/6 mouse at 10 mg/kg, po administered as single dose via gavage by LC-MS/MS analysis; assay type: ADME, organism-based; set-up: dose 10 mg/kg, route oral; details: in vivo
[46] = In vivo stability in C57Bl/6 mouse adipose tissue assessed as compound hydrolysis at 10 mg/kg, iv administered as single dose measured after 60 mins by LC-MS/MS analysis; assay type: ADME, organism-based; details: 1 h

C[C@]12C[C@@]34C=CC(=O)[C@@](C)(CCC(=O)Nc5c(O)ccc(C(=O)S[C@H]6CC(=O)[C@@](C)(CCC(=O)Nc7c(O)ccc(C(=O)O)c7O)[C@@H]7[C@@H]8C[C@@H]9C[C@]67C[C@]9(C)O8)c5O)[C@@H]3[C@H](C[C@@H]1C4)O2
dose excreted at 1 h ([1]; C57Bl/6, mouse, urine, read-out: Drug uptake): < 1%
AUC [2]: 6.3 µM·h
clearance [3]: 11 mL/min/kg
AUC [4]: 18 µM·h
Drug metabolism [5]: Metabolite_Detected
Kp at 1 h [6]: 0.2
Vd [7]: 0.33 L/kg
Kp at 1 h [8]: 0.6
half-life [9]: 1.1 h
Cmax [10]: 38 µM
Drug uptake [11]: Active
Drug uptake [12]: < 1%
Cmax [13]: 15 µM
Vd [14]: 2.5 L/kg
beta t1/2 [15]: 1.9 h

C[C@@]1(O)C[C@]23C[C@H]1CC[C@H]2[C@]1(C)CCC(=O)Nc2c(O)ccc(c2O)C(=O)S[C@H]2CC(=O)[C@@](C)(CCC(=O)Nc4c(O)ccc(c4O)C(=O)S[C@H]3CC1=O)[C@@H]1CC[C@@H]3C[C@]21C[C@@]3(C)O
AUC [16]: 2.5 µM·h
clearance [3]: 3 mL/min/kg
AUC [4]: 71 µM·h
Cmax [17]: 2.3 µM
Vd [7]: 0.08 L/kg
half-life [9]: 0.76 h
Cmax [10]: 150 µM
beta t1/2 [18]: 1.8 h

C[C@]12C[C@@]34C=CC(=O)[C@@](C)(CCNC(=O)Nc5c(O)ccc(C(=O)O)c5O)[C@@H]3[C@H](C[C@@H]1C4)O2
Drug uptake [1]: Active
Stability [19]: Stable
MIC [20]: > 64 µg/mL
Stability [21]: Stable
Drug uptake [22]: Active
Stability [23]: Stable
Drug uptake [11]: Active
Stability [24]: Stable
MIC [25]: > 64 µg/mL
Drug uptake [26]: Active

C[C@]12C[C@@]34C=CC(=O)[C@@](C)(CCC(=O)O)[C@@H]3[C@H](C[C@@H]1C4)O2
Drug metabolism [27]: Metabolite_Detected
Drug metabolism [28]: Metabolite_Detected

COC(=O)c1ccc(O)c(NC(=O)NCC[C@]2(C)C(=O)C=C[C@]34C[C@H]5C[C@H](O[C@@]5(C)C3)[C@H]42)c1O
MIC [20]: > 64 µg/mL
MIC [25]: 64 µg/mL (≈ 136 µM)

C[C@]12C[C@@]34C=CC(=O)[C@@](C)(CCNC(=O)Oc5c(O)ccc(C(=O)O)c5O)[C@@H]3[C@H](C[C@@H]1C4)O2
Drug uptake [1]: Active
Stability [19]: Stable
MIC [20]: > 64 µg/mL
Stability [21]: Stable
Drug uptake [22]: Active
Stability [23]: Stable
Drug uptake [11]: Active
Stability [24]: Stable
MIC [25]: > 64 µg/mL
Drug uptake [26]: Active

C=C1C[C@@]23C=CC(=O)[C@@](C)(CCC(=O)Nc4c(O)ccc(C(=O)O)c4O)[C@@H]2C[C@@H]1CC3 [PLATENCIN]
Stability [19]: Unstable
Kp at 1 h [29]: 0.4
AUC [30]: 6.8 µM·h
AUC [31]: 2.3 µM·h
Drug uptake [32]: Active
Cmax [33]: 11 µM
Vd [34]: 0.46 L/kg
half-life [35]: 0.22 h
Stability [36]: Stable
Drug uptake [37]: Active
bioavailability [38]: 10%
Stability [21]: Unstable
Kp at 1 h [6]: 1.4
clearance [39]: 23 mL/min/kg
Drug uptake [22]: Active
Kp at 1 h [8]: 3.8
Drug uptake [40]: Not Active
Stability [41]: Stable
Stability [23]: Unstable
Stability [42]: Stable
Drug uptake [11]: Active
Stability [24]: Unstable
half-life [43]: 1.3 h
Kp at 1 h [44]: 0.1
Cmax [45]: 4 µM
Stability [46]: Stable
Drug uptake [26]: Active

Reference: ChEMBL document CHEMBL3994662, “In vivo instability of platensimycin and platencin: Synthesis and biological evaluation of urea- and carbamate-platensimycin” (Bioorg Med Chem, 2017)
